Laboratory results from patent publication US20250099475A1, “METHODS OF TREATING HYPERTENSION BY PERIODIC SUPPRESSION OF ALDOSTERONE SYNTHASE” (Mineralys Therapeutics, Inc., priority 2022, published 2025).
Like-named read-outs stand apart in the source and are kept apart here. Marks after values point to notes of the source that are not given here.

Tests used:
[1] = Example 4 dose-ranging study: safety (adverse events, serum potassium, eGFR); format: in vivo, human
Experimental: Subjects orally administered the assigned study drug (Compound A HBr or placebo) according to the assigned dosing regimen for 8 weeks beginning on Study Day 1. All subjects in Part 1 (regardless of dosing group) received BID dosing to preserve the integrity of the blind; active drug is administered as the morning dose for all QD dose groups. Subjects returned to the research facility or were seen by the clinical investigator or approved home health care professional at the end of Study Weeks 1, 2, 3, 4, 5, 6, 7, and 8 (±2 days) for protocol-defined efficacy and safety assessments and procedures, assessment of adverse events (AEs), and confirmation of compliance with study drug usage. Subjects also completed a telephone visit and blood pressure (BP) check at home approximately 3 days post last dose of study drug. Subjects attended up to 14 full clinic visits, including a pre-Screening visit, a Screening/start of Placebo Run-in visit, a second visit during Placebo Run-in, a clinic visit to initiate the ABPM procedure, a Randomization visit, 8 weekly visits during double-blind treatment, and an end-of-study visit scheduled 4 weeks after the last study treatment for final efficacy and safety assessments.

[2] = Phase 1 part 2 multiple ascending dose: pharmacokinetics; format: in vivo, human; conditions: for half-life: male, human, plasma, oral
Experimental: A 4-part, Phase 1 randomized, double-blind, placebo-controlled, first-in-human study was performed to determine the safety, tolerability, PK, and PD of single ascending doses (SADs; part 1) and multiple ascending doses (MADs; part 2) of Compound A HBr in healthy participants. The study also assessed whether there were sex (part 3) and age-related (part 4) effects on the PK of a single dose of Compound A HBr. The study was approved by the local independent ethics committee; the BEBO foundation in Assen, Netherlands; and the Central Committee on Research Involving Human Subjects in The Hague, Netherlands; and conducted according to the provisions of the Declaration of Helsinki. Written informed consent was obtained from each study participant before conducting any protocol-related procedures.
In part 2, Compound A HBr or placebo was administered to a total of 36 healthy Caucasian men aged 19 to 54 years (inclusive) in 3 cohorts of 12 participants each. In each cohort, 9 participants were randomized to receive multiple doses of Compound A HBr and 3 participants were randomized to receive matching placebo. The participants received daily doses in the fed state from Day 1 to Day 7. The doses were administered in an ascending order per cohort. Progression to the next dose level and dose selection were based on available data from part 1 and the preceding dose cohort in part 2 (safety, tolerability, and PD data [up to 48 hours post-final dose] and available PK data [up to 24 hours post-final dose] from a minimum of 10 participants [Compound A HBr n≥7] in the preceding dose cohort). The final dose levels of Compound A HBr for part 2 were 40, 120, and 360 mg. An ACTH challenge test was performed on Day −2 and on Day 6 to evaluate Compound A HBr selectivity for aldosterone synthesis. Plasma concentrations of aldosterone and 11-deoxycortisol and serum concentrations of cortisol and 11-DOC were measured pre-ACTH dose and 30 and 60 minutes post-ACTH dose on Day −2 and Day 6.
Plasma PK parameters were derived by non-compartmental analysis using WinNonlin® (version 6.3). Dose proportionality was assessed using the power model with AUC0-∞, AUC0-last, and Cmax for part 1 (SAD) and with AUC0-last, AUC0-∞, AUC0-τ, and Cmax for part 2 (MAD). A linear model (ln(Y)=α+β×ln(X), where Y is the pharmacokinetic parameter and X is the dose) was used to fit the power model, after log-transformation of the parameters. Dose proportionality was concluded if the 95% confidence interval (CI) for slope (β) included the value 1.
An analytical method for the determination of Compound A in human plasma (dipotassium ethylenediaminetetraacetic acid [K2-EDTA]) and human urine using solid-phase extraction and high-performance liquid chromatography with mass spectrometric detection was successfully validated over the concentration range 0.1000 ng/mL (lower limit of quantification) to 100.0 ng/mL prior to initiation of the clinical trial. […] For all other analytes, validated quantitative measurement methods were used.

[3] = pooled (Part 1 and Part 2) 100 mg QD safety set (n=60)

## CC(=O)N[C@H]1CC[C@H](NC(=O)CN2CCN(c3nncc(-c4ccc(C)cc4)n3)CC2)CC1 [Compound A HBr]
[1]; 100 mg QD Pooled, N 60
  Study drug discontinuation: Hyperkalemia, subjects (%): 2 (3.3%)
  Study drug discontinuation: Hyponatremia, subjects (%): 1 (1.7%)
  Study drug discontinuation: Hypotension, subjects (%): 2 (3.3%)
  Study drug discontinuation: Other possibly related, subjects (%): 1 (1.7%)
  Study drug discontinuation: Other unrelated, subjects (%): 4 (6.7%)
[1]; 100 mg QD, Part 1
  Individuals with verified or multiple increased Serum K+ 5.2-5.5 mMol/L, number (%): 5 (18.5%)
  Individuals with verified or multiple increased Serum K+ 5.6-6.0 mMol/L, number (%): 3 (10.7%)
  Individuals with verified or multiple increased Serum K+ 6.1-6.5 mMol/L, number (%): 0
[1]; 100 mg QD, Part 1, isolated incident not verified by repeat measurement
  Individuals with increased Serum K+ >6.5 mMol/L, number: 1*
[1]; 100 mg QD, Part 2
  Individuals with verified or multiple increased Serum K+ 5.2-5.5 mMol/L, number (%): 1 (4%)
  Individuals with verified or multiple increased Serum K+ 5.6-6.0 mMol/L, number (%): 0
  Individuals with verified or multiple increased Serum K+ 6.1-6.5 mMol/L, number (%): 0
  Individuals with verified or multiple increased Serum K+ >6.5 mMol/L, number: 0
[1]; 100 mg QD, Pooled
  Individuals with verified or multiple increased Serum K+ 5.2-5.5 mMol/L, number (%): 6 (10.3%)
  Individuals with verified or multiple increased Serum K+ 5.6-6.0 mMol/L, number (%): 3 (5.2%)
  Individuals with verified or multiple increased Serum K+ 6.1-6.5 mMol/L, number (%): 0
  Individuals with verified or multiple increased Serum K+ >6.5 mMol/L, number: 0
[1]; Part 1 100 mg QD, N 29
  Study drug discontinuation: Hyperkalemia, subjects (%): 2 (6.9%)
  Study drug discontinuation: Hyponatremia, subjects (%): 0
  Study drug discontinuation: Hypotension, subjects (%): 1 (3.4%)
  Study drug discontinuation: Other possibly related, subjects (%): 1 (3.4%)
  Study drug discontinuation: Other unrelated, subjects (%): 3 (6.0%)
[1]; Part 1, N 26 (dose not given)
  Change in group mean serum potassium (K+), Mean: +0.50 mMol/L
[1]; Part 1 All active, N 159
  Study drug discontinuation: Hyperkalemia, subjects (%): 6 (3.8%)
  Study drug discontinuation: Hyponatremia, subjects (%): 0
  Study drug discontinuation: Hypotension, subjects (%): 2 (1.2%)
  Study drug discontinuation: Other possibly related, subjects (%): 1 (0.6%)
  Study drug discontinuation: Other unrelated, subjects (%): 11 (6.9%)
[1]; Part 2 100 mg QD, N 31
  Study drug discontinuation: Hyperkalemia, subjects (%): 0
  Study drug discontinuation: Hyponatremia, subjects (%): 1 (3.4%)
  Study drug discontinuation: Hypotension, subjects (%): 1 (2.8%)
  Study drug discontinuation: Other possibly related, subjects (%): 0
  Study drug discontinuation: Other unrelated, subjects (%): 1 (2.8%)
[1]; Part 2, N 31 (dose not given)
  Change in group mean serum potassium (K+), Mean: +0.23 mMol/L
[1]; Pooled, N 57 (dose not given)
  Change in group mean serum potassium (K+), Mean: +0.35 mMol/L
[1]; Total active, N 190
  Study drug discontinuation: Hyperkalemia, subjects (%): 6 (3.2%)
  Study drug discontinuation: Hyponatremia, subjects (%): 1 (0.5%)
  Study drug discontinuation: Hypotension, subjects (%): 3 (1.6%)
  Study drug discontinuation: Other possibly related, subjects (%): 1 (0.5%)
  Study drug discontinuation: Other unrelated, subjects (%): 12 (6.3%)
[1]; dosing cohorts
  change in eGFR: dose-dependent and reversible reduction in eGFR
[1]; [3]
  effects on serum cortisol: no effects on serum cortisol
  episodes of hyperkalemia: few episodes of mild or moderate hyperkalemia and no episodes of severe hyperkalemia
[1]; whole trial
  serious adverse events (SAEs) related to the study medication: No serious adverse events (SAEs) related to the study medication
[2]; 40 mg once daily, Day 1, fed
  AUC0-24, mean (SD): 1574 (282) ng × h/mL
  Cmax, mean (SD): 252 (64) ng/mL
  Tmax, median and range: 3 (0.5-5) h
[2]; 40 mg once daily, Day 7, fed
  AUC0-24, mean (SD): 1795 (312) ng × h/mL
  Cmax, mean (SD): 365 (46) ng/mL
  T 1/2, mean (SD): 9 (2) h
  Tmax, median and range: 1.5 (0.5-5) h
[2]; 120 mg once daily, Day 1, fed
  AUC0-24, mean (SD): 4876 (1024) ng × h/mL
  Cmax, mean (SD): 887 (291) ng/mL
  Tmax, median and range: 3 (0.5-8) h
[2]; 120 mg once daily, Day 7, fed
  AUC0-24, mean (SD): 5816 (1315) ng × h/mL
  Cmax, mean (SD): 1039 (343) ng/mL
  T 1/2, mean (SD): 12 (2) h
  Tmax, median and range: 2.5 (1-4)^ h
[2]; 360 mg once daily, Day 1, fed
  AUC0-24, mean (SD): 19335 (3111) ng × h/mL
  Cmax, mean (SD): 3220 (1171) ng/mL
  Tmax, median and range: 3 (2-5) h
[2]; 360 mg once daily, Day 7, fed
  AUC0-24, mean (SD): 21825 (3955) ng × h/mL
  Cmax, mean (SD): 3812 (1282) ng/mL
  T 1/2, mean (SD): 9 (2) h
  Tmax, median and range: 2 (1-3) h
[2]; 40 mg once daily, Day 1, fed, read-out: T 1/2, mean (SD) (converted)
  half-life: 5 h
[2]; 120 mg once daily, Day 1, fed, read-out: T 1/2, mean (SD) (converted)
  half-life: 4 h
[2]; 360 mg once daily, Day 1, fed, read-out: T 1/2, mean (SD) (converted)
  half-life: 4 h
[2]; once-daily dosing, read-out: t1/2 on Day 7 (converted)
  half-life: ~10 h
[2]; once-daily 40 to 360 mg
  Steady state achieved by: ~5 days
